Like-named read-outs stand apart in the source and are kept apart here.
Experiments:
MRC-5 = experiment: MTT cytotoxicity assay, 72 h, normal control cells; type: cell-based, human; details: Homo sapiens, MRC5, IC50 ± SD, normal fibroblasts
Procedure: (§1) In our study, the human cancer cell lines used were CFAPC- 1 (pancreatic adenocarcinoma); NCI-H460 (large cell lung); HL-60 (acute promyelocytic leukaemia); CACO2 (colorectal adenocarcinoma); HCT-116 (colorectal carcinoma); K562 (chronic myeloid leukaemia); MCF-7 (breast adenocarcinoma); and MRC-5 control cells (normal fibroblasts).
(§2) CFAPC-1, NCI-H460 H1975, HL-60, HCT-116, CACO2, K562, MCF-7, and MCR-5 were grown and maintained in RPMI 1640 and DMEM F12 as appropriate with 10% fetal bovine serum, 100 UI/mL penicillin–streptomycin, and cultured al 37 °C in 5% CO2 humidified atmosphere. Control cultures were treated with dimethyl sulfoxide (1%) alone at the same concentration as in the purine derivatives treatment. Cell viability was determined by trypan blue dye exclusion. Cell numbers were counted in hemocytometer by light microscopy.
(§3) Cytotoxicity assays were performed by using the MTT reduction method as described in the literature. Briefly, cancer cell lines were plated in a flat-bottom 96-wells plate at 1 × 10^4 cells per well density. Then, the cells were incubated with synthetized compounds at different concentrations (from 0.1 to 100 µM) in 200 µL of 10% fetal bovine serum-RPMI or EMEM culture medium at 37 °C for 72 h. Then, 10 µL of MTT was added at a final concentration of 0.5 mg/mL, incubated at 37 °C for 4 h, and then solubilized with 10% sodium dodecyl sulphate (SDS) in 0.1 mM HCl and incubated overnight at 37 °C. Formazan formation was measured at 570 nm in a multi-well reader (StatFax 4200).

NCI-H460 = experiment: MTT cytotoxicity assay, 72 h; type: cell-based, human; details: for Selectivity Index (SI) MRC-5/NCI-H460: IC50 in MRC-5 / IC50 in NCI-H460
Procedure: as §1, §2, §3

HL-60 = experiment: MTT cytotoxicity assay, 72 h; type: cell-based, human; details: for Selectivity Index (SI) MRC-5/HL-60: IC50 in MRC-5 / IC50 in HL-60
Procedure: as §1, §2, §3

MCF-7 = experiment: MTT cytotoxicity assay, 72 h; type: cell-based, human; details: for IC50: Homo sapiens, MCF7, 72 h, MTT, 72 h, IC50 ± SD; for Selectivity Index (SI) MRC-5/MCF-7: IC50 in MRC-5 / IC50 in MCF-7
Procedure: as §1, §2, §3

CFPAC-1 = experiment: MTT cytotoxicity assay, 72 h; type: cell-based, human; details: Homo sapiens, CFPAC-1, IC50 ± SD
Procedure: as §1, §2, §3

HCT-116 = experiment: MTT cytotoxicity assay, 72 h; type: cell-based, human; details: Homo sapiens, HCT-116, IC50 ± SD
Procedure: as §1, §2, §3

K562 = experiment: MTT cytotoxicity assay, 72 h; type: cell-based, human; details: for IC50: Homo sapiens, K562, 72 h, MTT, 72 h, IC50 ± SD; for Selectivity Index (SI) MRC-5/K562: IC50 in MRC-5 / IC50 in K562
Procedure: as §1, §2, §3

CACO2 = experiment: MTT cytotoxicity assay, 72 h; type: cell-based, human; details: Homo sapiens, Caco-2, IC50 ± SD
Procedure: Cytotoxicity assays were performed by using the MTT reduction method as described in the literature [23, 37]. Briefly, cancer cell lines were plated in a flat-bottom 96-wells plate at 1 × 10^4 cells per well density. Then, the cells were incubated with synthetized compounds at different concentrations (from 0.1 to 100 µM) in 200 µL of 10% fetal bovine serum-RPMI or EMEM culture medium at 37 °C for 72 h. Then, 10 µL of MTT was added at a final concentration of 0.5 mg/mL, incubated at 37 °C for 4 h, and then solubilized with 10% sodium dodecyl sulphate (SDS) in 0.1 mM HCl and incubated overnight at 37 °C. Formazan formation was measured at 570 nm in a multi-well reader (StatFax 4200).

HL-60 cells = experiment: Cell viability by propidium iodide flow cytometry; type: cell-based, human; details: HL-60, 50 μM, 24 h, PI staining
Text: Next, in order to determinate the cell death type induced by the most promising compounds, we performed a flow cytometry analysis of cell viability in cell line HL-60 treated with the most promising compounds (selected according to their IC50 values and SI). The HL-60 cancer cells were chosen due to their sensitivity to prepared compounds. […] As a preliminary apoptosis filter, propidium iodide (PI) staining was used through flow cytometry analysis which discriminated a population of viable cells impermeable to PI (PI negative) from necrotic cells PI-permeable (PI positive) and apoptotic cells (the difference of the previous two). The results are shown in Figure 7, illustrating that all purine derivatives tested induced apoptosis on HL-60 cells. Around 40% of apoptotic cells were detected in a culture treated with compounds 7a and 7i, 30% by 7e, 7g, and 7h and 70% by 7d and 7j. […] (For dot plots, see Supplementary Information Figures S1–S3.)
Cell viability was analyzed by flow cytometry as previously described. In this assay, after setting the baseline to exclude cell debris, cells impermeable to propidium iodide (PI negative) are considered as viable. Two populations of PI-permeable dead cells are distinguished based on fluorescence intensity, corresponding to either hypodiploid apoptotic cells or necrotic cells with intact DNA. Here, HL60 cells were incubated with concentrations of 50 µM of each compound for 24 h at 37 °C. Cells were harvested and stained with 10 µg/mL of propidium iodide to determine cell viability. Samples containing roughly 1 × 10^4 cells were evaluated by flow cytometry (FACScanto II; Becton Dickinson, Mountain View, CA) and analyzed using FCS Express v6 software. Three independent biological replicates were performed.

[1] = Homo sapiens, NCI-H460, 72 h, MTT, 72 h, IC50 ± SD, read-out: IC50 NCI-H460
[2] = Homo sapiens, HL-60, 72 h, MTT, 72 h, IC50 ± SD, read-out: IC50 HL-60
[3] = Homo sapiens, HL-60, -logIC50 in molar concentration, Table S1, read-out: Experimental pIC50 (HL-60) (converted)
[4] = Homo sapiens, NCI-H460, -logIC50 in molar concentration, Table S2, read-out: Experimental pIC50 (NCI-H460) (converted)
[5] = MTT, 72 h, IC50 ± SD, read-out: IC50 NCI-H460

Structure (SMILES): CCn1cnc2c(-c3ccc(OC(F)(F)F)cc3)nc(NC3CCCC3)nc21 [4a, N-cyclopentyl-9-ethyl-6-(4-(trifluoromethoxy)phenyl)-9H-purin-2-amine]
- melting point: 85 to 87 °C
- IC50 (MRC-5): > 100 µM
- IC50 (NCI-H460; [1]): > 100 µM
- IC50 (HL-60; [2]): 38 ± 3 µM
- IC50 (MCF-7): > 25 µM
- IC50 (CFPAC-1): > 100 µM
- IC50 (HCT-116): > 50 µM
- IC50 (K562): > 25 µM
- IC50 (CACO2): > 100 µM

Structure (SMILES): CCCCn1cnc2c(-c3ccc(OC(F)(F)F)cc3)nc(NC3CCCCCC3)nc21 [4i, 9-Butyl-N-cycloheptyl-6-(4-(trifluoromethoxy)phenyl)-9H-purin-2-amine]
- melting point: 72 to 74 °C
- IC50 (MRC-5): > 100 µM
- IC50 (NCI-H460; [1]): > 100 µM
- IC50 (HL-60; [2]): 19 ± 3.9 µM
- IC50 (HL-60; [3]): 19 µM
- IC50 (MCF-7): > 25 µM
- IC50 (CFPAC-1): > 100 µM
- IC50 (HCT-116): > 50 µM
- IC50 (K562): > 25 µM
- IC50 (CACO2): > 100 µM

Structure (SMILES): CCCCCn1cnc2c(-c3ccc(OC(F)(F)F)cc3)nc(NC3CCCCCC3)nc21 [4j, N-cycloheptyl-9-pentyl-6-(4-(trifluoromethoxy)phenyl)-9H-purin-2-amine]
- melting point: 50 to 53 °C
- IC50 (MRC-5): > 100 µM
- IC50 (NCI-H460; [1]): > 100 µM
- IC50 (HL-60; [2]): < 6 µM
- IC50 (HL-60; [3]): 6 µM
- Selectivity Index (SI) MRC-5/HL-60 (HL-60): > 16.7
- IC50 (HL-60; MTT, 72 h, IC50 ± SD, read-out: IC50 HL-60): 6 ± 0.8 µM
- IC50 (MCF-7): > 25 µM
- IC50 (CFPAC-1): > 100 µM
- IC50 (HCT-116): > 50 µM
- IC50 (K562): > 25 µM
- IC50 (CACO2): > 100 µM

Structure (SMILES): CCCCCCn1cnc2c(-c3ccc(OC(F)(F)F)cc3)nc(NC3CCCCCC3)nc21 [4k, N-cycloheptyl-9-Hexyl-6-(4-(trifluoromethoxy)phenyl)-9H-purin-2-amine]
- melting point: 68 to 70 °C
- IC50 (MRC-5): > 100 µM
- IC50 (NCI-H460; [1]): > 100 µM
- IC50 (HL-60; [2]): 12 ± 0.6 µM
- IC50 (HL-60; [3]): 12 µM
- IC50 (MCF-7): > 25 µM
- IC50 (CFPAC-1): > 100 µM
- IC50 (HCT-116): > 50 µM
- IC50 (K562): > 25 µM
- IC50 (CACO2): > 100 µM

Structure (SMILES): CCCCCn1cnc2c(-c3ccc(OC(F)(F)F)cc3)nc(N3CCC(c4ccccc4)CC3)nc21 [4t, 9-Pentyl-2-(4-phenylpiperidin-1-yl)-6-(4-(trifluoromethoxy)phenyl)-9H-purine]
- melting point: 150 to 153 °C
- IC50 (MRC-5): > 100 µM
- IC50 (NCI-H460; [1]): > 100 µM
- IC50 (HL-60; [2]): > 50 µM
- IC50 (MCF-7): > 25 µM
- IC50 (CFPAC-1): > 100 µM
- IC50 (HCT-116): > 50 µM
- IC50 (K562): > 25 µM
- IC50 (CACO2): > 100 µM

Structure (SMILES): O=[N+]([O-])c1ccc(N2CCN(c3nc(Cl)nc4c3ncn4C3CCCC3)CC2)nc1 [7a, 2-Chloro-9-cyclopentyl-6-(4-(5-nitropyridin-2-yl)piperazin-1-yl)-9H-purine]
- IC50 (MRC-5): > 100 µM
- apoptotic cells (HL-60 cells): Around 40%
- IC50 (NCI-H460; [1]): < 10 µM
- IC50 (NCI-H460; [4]): 5.73 µM
- Selectivity Index (SI) MRC-5/NCI-H460 (NCI-H460): > 17.5
- IC50 (NCI-H460; [5]): 5.73 ± 0.37 µM
- IC50 (HL-60; [3]): 2.1 µM
- Selectivity Index (SI) MRC-5/HL-60 (HL-60): > 47.6
- IC50 (MCF-7): 0.95 ± 0.14 µM
- Selectivity Index (SI) MRC-5/MCF-7 (MCF-7): > 105
- IC50 (CFPAC-1): > 100 µM
- IC50 (HCT-116): 6.4 ± 1.3 µM
- IC50 (K562): 0.87 ± 0.01 µM
- Selectivity Index (SI) MRC-5/K562 (K562): > 115
- IC50 (CACO2): > 100 µM

Structure (SMILES): Clc1nc(N2CCN(c3cnccn3)CC2)c2ncn(C3CCCC3)c2n1 [7d, 2-Chloro-9-cyclopentyl-6-(4-(pyrazin-2-yl)piperazin-1-yl)-9H-purine]
- IC50 (MRC-5): 17 ± 1 µM
- apoptotic cells (HL-60 cells): ~70%
- IC50 (NCI-H460; [1]): 8.25 ± 0.11 µM
- IC50 (NCI-H460; [4]): 8.25 µM
- Selectivity Index (SI) MRC-5/NCI-H460 (NCI-H460): 2.0
- IC50 (HL-60; [2]): 4.6 ± 0.2 µM
- IC50 (HL-60; [3]): 4.6 µM
- Selectivity Index (SI) MRC-5/HL-60 (HL-60): 3.7
- IC50 (MCF-7): > 12.5 µM
- IC50 (CFPAC-1): > 100 µM
- IC50 (HCT-116): > 50 µM
- IC50 (K562): 5.86 ± 1.06 µM
- Selectivity Index (SI) MRC-5/K562 (K562): 2.9
- IC50 (CACO2): > 100 µM

Structure (SMILES): Clc1nc(N2CCN(c3ccncc3)CC2)c2ncn(C3CCCC3)c2n1 [7i, 2-Chloro-9-cyclopentyl-6-(4-(pyridin-4-yl)piperazin-1-yl)-9H-purine]
- IC50 (MRC-5): > 100 µM
- apoptotic cells (HL-60 cells): Around 40%
- IC50 (NCI-H460; [1]): < 10 µM
- IC50 (NCI-H460; [4]): 8.54 µM
- Selectivity Index (SI) MRC-5/NCI-H460 (NCI-H460): > 11.7
- IC50 (NCI-H460; [5]): 8.54 ± 0.21 µM
- IC50 (HL-60; [2]): 3.8 ± 1.5 µM
- IC50 (HL-60; [3]): 3.8 µM
- Selectivity Index (SI) MRC-5/HL-60 (HL-60): > 26.3
- IC50 (MCF-7): 22 ± 1 µM
- Selectivity Index (SI) MRC-5/MCF-7 (MCF-7): > 4.5
- IC50 (CFPAC-1): > 100 µM
- IC50 (HCT-116): > 50 µM
- IC50 (K562): 9.96 ± 0.93 µM
- Selectivity Index (SI) MRC-5/K562 (K562): > 10
- IC50 (CACO2): > 100 µM

Structure (SMILES): COc1ccc(N2CCN(c3nc(Cl)nc4c3ncn4C3CCCC3)CC2)cc1 [7j, 2-Chloro-9-cyclopentyl-6-(4-(4-methoxyphenyl)piperazin-1-yl)-9H-purine]
- IC50 (MRC-5): 30 ± 1 µM
- apoptotic cells (HL-60 cells): ~70%
- IC50 (NCI-H460; [1]): < 10 µM
- IC50 (NCI-H460; [4]): 7.08 µM
- Selectivity Index (SI) MRC-5/NCI-H460 (NCI-H460): 4.2
- IC50 (NCI-H460; [5]): 7.08 ± 0.22 µM
- IC50 (HL-60; [2]): 1.5 ± 0.07 µM
- IC50 (HL-60; [3]): 1.5 µM
- Selectivity Index (SI) MRC-5/HL-60 (HL-60): 20.0
- IC50 (MCF-7): 6.61 ± 0.67 µM
- Selectivity Index (SI) MRC-5/MCF-7 (MCF-7): 4.5
- IC50 (CFPAC-1): > 100 µM
- IC50 (HCT-116): > 50 µM
- IC50 (K562): 3.38 ± 0.71 µM
- Selectivity Index (SI) MRC-5/K562 (K562): 8.8
- IC50 (CACO2): > 100 µM

Reference: PMC6981454, “Promising 2,6,9-Trisubstituted Purine Derivatives for Anticancer Compounds: Synthesis, 3D-QSAR, and Preliminary Biological Assays” (International Journal of Molecular Sciences, 2019)
